Reference: patent publication US20260125379A1, “PRODRUG OF JAK KINASE INHIBITOR” (E-nitiate Biopharmaceuticals (Hangzhou) Co., Ltd, priority 2022, published 2026)
Counter-ions that a name gives are not always drawn.

What was measured:
JAK1 = JAK1 (Homo sapiens, UniProt P23458); assay: JAK1 kinase inhibition assay (ULight-JAK-1 substrate, Eu-labeled anti-phosphotyrosine antibody); format: biochemical; conditions: JAK1 10 nM, substrate 50 nM, ATP 40 μM, 2 hours at room temperature
Description: (§1) Example A: Activity Detection of JAK Kinase Small Molecule Inhibitors
(§2) Kinase reaction buffer was prepared with the following components: 50 mM HEPES, pH 7.5, 1 mM EGTA, 10 mM MgCl2, 2 mM DTT, 0.01% Tween20.
(§3) Detection buffer was prepared by diluting 10× detection buffer to IX with deionized water in a ratio of 9:1.
(§4) JAK kinase was diluted with kinase reaction buffer to 4× final concentration (JAK1: 40 nM, JAK2: 0.5 nM).
(§5) ULight™-JAK-1 (Tyr1023) substrate was diluted with kinase reaction buffer to 200 nM (final concentration: 50 nM).
(§6) ATP was diluted with kinase reaction buffer to 4× final concentration (JAK1: 160 μM, JAK2: 40 μM).
(§7) Compound to be tested was dissolved with DMSO to obtain a 10 mM storage solution, which was diluted to desired concentrations by a 3-fold gradient; for each compound 10 concentration points were set, and the final concentration of the compound to be tested ranges from 10 μM to 0.5 nM.
(§8) EDTA was dissolved with 1× detection buffer to 40 mM (EDTA final concentration: 10 mM).
(§9) Eu-labeled detection antibody (anti-phosphotyrosine (PT66)) was diluted with 1× detection buffer to 8 nM (final antibody concentration: 2 nM).
(§10) (1) To a 384-well plate, 2.5 μL 4× kinase solution and 2.5 μL 4× test compound solution with different concentrations that have been diluted were added successively, each concentration was set in duplicate, and an enzyme solution blank control and a negative control (DMSO group) were also set.
(§11) (2) The 384-well plate was shaken to mix enzyme and compound well, and then centrifuged at 1000 rpm for 1 minute, and incubated at room temperature for 60 minutes.
(§12) (3) 2.5 μL 4× substrate solution was added to the 384-well plate and centrifuged at 1000 rpm for 1 minute.
(§13) (4) 2.5 μL 4× ATP solution was added to the 384-well plate and centrifuged at 1000 rpm for 1 minute, and then enzyme reaction was initiated.
(§14) (5) For JAK1 the reaction was carried out at room temperature for 2 hours, and for JAK2 the reaction was carried out at room temperature for 1 hour.
(6) For the JAK1 reaction, the final concentrations of components are as follows: JAK1: 10 nM, substrate: 50 nM, ATP: 40 μM; and the final concentration of the tested compounds ranges from 10μ M to 0.5 nM.
(§15) (7) After the enzyme reaction was completed, 5 μL 4× enzyme reaction termination solution was added to each well of the 384-well plate, and then centrifuged at 1000 rpm for 1 minute and incubated at room temperature for 5 minutes.
(§16) (8) 5 μL 4× detection antibody solution (the final concentration of detection antibody is 2 nM) was added to each well of the 384-well plate, and then centrifuged at 1000 rpm for 1 minute and incubated at room temperature for 1 hour.
(§17) (9) At the antibody incubation was completed, signal value of each well was measured on a Envision plate reader.
(§18) (1) The percentage inhibition rate corresponding to each concentration of the tested compound was calculated on the basis that the blank control of enzyme solution corresponds to 100% and the negative control (DMSO group) corresponds to 0%.
(§19) (2) A nonlinear regression analysis of the logarithm of the concentration of the detected compound and the corresponding percentage inhibition rate was performed in GraphPad Prism software to obtain the half-inhibiting concentration (IC50) of the tested compound.

JAK2 = JAK2 (Homo sapiens, UniProt O60674); assay: JAK2 kinase inhibition assay (ULight-JAK-1 substrate, Eu-labeled anti-phosphotyrosine antibody); format: biochemical; conditions: JAK2 0.125 nM, substrate 50 nM, ATP 10 μM, 1 hour at room temperature
Chain of JAK2 (O60674 whole entry, species assumed): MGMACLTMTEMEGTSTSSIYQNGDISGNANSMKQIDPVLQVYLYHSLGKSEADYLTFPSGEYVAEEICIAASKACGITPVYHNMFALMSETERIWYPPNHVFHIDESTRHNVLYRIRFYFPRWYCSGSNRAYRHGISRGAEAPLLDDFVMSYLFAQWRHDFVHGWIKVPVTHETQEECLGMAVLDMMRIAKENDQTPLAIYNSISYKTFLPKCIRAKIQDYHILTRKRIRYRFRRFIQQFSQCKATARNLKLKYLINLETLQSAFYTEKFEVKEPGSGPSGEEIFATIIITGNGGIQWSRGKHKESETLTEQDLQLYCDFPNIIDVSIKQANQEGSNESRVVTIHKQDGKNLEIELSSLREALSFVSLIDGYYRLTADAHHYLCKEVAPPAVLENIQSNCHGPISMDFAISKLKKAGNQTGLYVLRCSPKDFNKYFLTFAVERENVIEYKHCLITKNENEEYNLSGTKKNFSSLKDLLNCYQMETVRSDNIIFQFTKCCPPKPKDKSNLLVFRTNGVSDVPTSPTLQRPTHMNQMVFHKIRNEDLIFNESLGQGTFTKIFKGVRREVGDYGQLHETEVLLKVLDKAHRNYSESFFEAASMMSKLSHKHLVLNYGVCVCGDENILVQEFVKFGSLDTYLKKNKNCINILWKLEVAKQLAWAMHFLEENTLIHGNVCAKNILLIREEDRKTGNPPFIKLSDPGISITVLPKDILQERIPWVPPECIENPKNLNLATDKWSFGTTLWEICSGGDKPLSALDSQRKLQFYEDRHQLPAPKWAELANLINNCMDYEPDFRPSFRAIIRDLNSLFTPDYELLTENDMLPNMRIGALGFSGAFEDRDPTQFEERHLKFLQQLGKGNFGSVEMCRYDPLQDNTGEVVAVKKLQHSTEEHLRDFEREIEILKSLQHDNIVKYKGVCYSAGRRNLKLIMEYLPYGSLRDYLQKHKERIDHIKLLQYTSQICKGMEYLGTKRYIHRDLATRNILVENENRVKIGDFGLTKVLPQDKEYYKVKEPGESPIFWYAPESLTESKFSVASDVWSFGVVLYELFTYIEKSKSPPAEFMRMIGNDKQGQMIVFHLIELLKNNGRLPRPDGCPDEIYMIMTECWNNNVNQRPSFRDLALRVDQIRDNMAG
Description: as §1, §2, §3, §4, §5, §6, §7, §8, §9, §10, §11, §12, §13, §14
For the JAK2 reaction, the final concentrations of component are as follows: JAK2: 0.125 nM, substrate: 50 nM, ATP: 10 μM; and the final concentration of the tested compound ranges from 10 μM to 0.5 nM.
as §15, §16, §17, §18, §19

Chain of JAK1 (P23458 whole entry, species assumed): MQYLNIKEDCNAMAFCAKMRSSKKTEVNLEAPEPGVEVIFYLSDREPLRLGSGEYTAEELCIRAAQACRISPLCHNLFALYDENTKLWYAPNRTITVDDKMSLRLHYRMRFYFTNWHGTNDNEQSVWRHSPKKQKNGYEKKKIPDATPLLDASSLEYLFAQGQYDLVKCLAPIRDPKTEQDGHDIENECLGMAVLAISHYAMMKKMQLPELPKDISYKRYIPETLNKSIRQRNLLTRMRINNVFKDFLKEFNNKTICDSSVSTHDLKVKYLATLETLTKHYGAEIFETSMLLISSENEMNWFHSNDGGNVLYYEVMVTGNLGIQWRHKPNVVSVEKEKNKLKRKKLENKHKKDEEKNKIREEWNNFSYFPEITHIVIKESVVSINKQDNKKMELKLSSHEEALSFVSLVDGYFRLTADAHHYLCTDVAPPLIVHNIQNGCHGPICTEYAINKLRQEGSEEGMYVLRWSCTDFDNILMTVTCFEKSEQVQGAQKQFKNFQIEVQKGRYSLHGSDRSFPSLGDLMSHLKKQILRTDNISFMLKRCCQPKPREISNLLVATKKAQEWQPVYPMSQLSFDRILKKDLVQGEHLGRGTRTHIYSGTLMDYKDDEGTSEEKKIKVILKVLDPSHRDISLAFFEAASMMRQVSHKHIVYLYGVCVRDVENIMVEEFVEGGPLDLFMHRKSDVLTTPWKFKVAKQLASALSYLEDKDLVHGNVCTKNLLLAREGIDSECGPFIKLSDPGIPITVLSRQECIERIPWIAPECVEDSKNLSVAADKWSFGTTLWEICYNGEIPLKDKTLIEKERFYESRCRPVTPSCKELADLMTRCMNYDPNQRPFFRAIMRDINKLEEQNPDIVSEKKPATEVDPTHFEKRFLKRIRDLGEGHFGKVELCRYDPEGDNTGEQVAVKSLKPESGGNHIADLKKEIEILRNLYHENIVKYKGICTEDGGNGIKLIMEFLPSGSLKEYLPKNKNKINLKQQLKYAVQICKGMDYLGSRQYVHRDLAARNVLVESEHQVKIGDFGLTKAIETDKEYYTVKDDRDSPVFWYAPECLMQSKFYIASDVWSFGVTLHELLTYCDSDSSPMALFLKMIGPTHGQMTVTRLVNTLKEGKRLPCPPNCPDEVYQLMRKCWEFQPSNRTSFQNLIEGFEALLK

Compound	IC50 (JAK1)	IC50 (JAK2)
C[C@@H](OC(=O)Nc1ccccc1/N=N/c1ccc(O)c(C(=O)O)c1)c1nc2cnc3[nH]ccc3c2n1N1CCC(CC#N)CC1 [Compound A4]	105 nM	100 nM
CC(=O)O[C@H](C)c1nc2cnc3[nH]ccc3c2n1N1CCC(CC#N)CC1 [Compound A5, (R)-1-(1-(4-(cyanomethyl)piperidin-1-yl)-1,6-dihydroimidazo[4,5-d]pyrrolo[2,3-b]pyridin-2-yl)ethyl acetate]	1.83 nM	4.04 nM
C[C@@H](OC(=O)CCCCO[N+](=O)[O-])c1nc2cnc3[nH]ccc3c2n1N1CCC(CC#N)CC1 [Compound A6, (R)-1-(1-(4-(cyanomethyl)piperidin-1-yl)-1,6-dihydroimidazo[4,5-d]pyrrolo[2,3-b]pyridin-2-yl)ethyl 5-(nitrooxy)valerate]	31.3 nM	40.3 nM
C[C@@H](OC(=O)CN(C)C)c1nc2cnc3[nH]ccc3c2n1N1CCC(CC#N)CC1 [Compound A7, (R)-1-(1-(4-(cyanomethyl)piperidin-1-yl)-1,6-dihydroimidazo[4,5-d]pyrrolo[2,3-b]pyridin-2-yl)ethyl dimethylglycinate]	3.85 nM	57.8 nM
CC(C)[C@@H](N)C(=O)O[C@H](C)c1nc2cnc3[nH]ccc3c2n1N1CCC(CC#N)CC1 [Compound A8, (R)-1-(1-(4-(cyanomethyl)piperidin-1-yl)-1,6-dihydroimidazo[4,5-d]pyrrolo[2,3-b]pyridin-2-yl)ethyl D-valinate]	5.86 nM	72 nM
CC(C)[C@H](N)C(=O)O[C@H](C)c1nc2cnc3[nH]ccc3c2n1N1CCC(CC#N)CC1 [Compound A9, (R)-1-(1-(4-cyanomethylpiperidin-1-yl)-1,6-dihydroimidazo[4,5-d]pyrrolo[2,3-b]pyridin-2-yl)ethyl L-valinate]	3.05 nM	56.4 nM
COC(=O)/C=C/C(=O)OCO[C@H](C)c1nc2cnc3[nH]ccc3c2n1N1CCC(CC#N)CC1 [Compound A10, (R)-(1-(1-(4-(cyanomethyl)piperidin-1-yl)-1,6-dihydroimidazo[4,5-d]pyrrolo[2,3-b]pyridin-2-yl)ethoxy)methyl monomethyl fumarate]	96.7 nM	21.1 nM
CSCC1(C)CCN(n2c(CO[N+](=O)[O-])nc3cnc4[nH]ccc4c32)CC1 [Compound A11, (1-(4-Methyl-4-((methylthio)methyl)piperidin-1-yl)-1,6-dihydroimidazo[4,5-d]pyrrolo[2,3-b]pyridin-2-yl)methyl nitrate]	5.62 nM	4.19 nM
CSCC1(C)CCN(n2c(CCO[N+](=O)[O-])nc3cnc4[nH]ccc4c32)CC1 [Compound A12, 2-(1-(4-Methyl-4-((methylthio)methyl)piperidin-1-yl)-1,6-dihydroimidazo[4,5-d]pyrrolo[2,3-b]pyridin-2-yl)ethyl nitrate]	38.9 nM	37.9 nM
Nc1nc2cnc3[nH]ccc3c2n1N1CCCCC1 [Compound B1, 1-(Piperidin-1-yl)-1,6-dihydroimidazo[4,5-d]pyrrolo[2,3-b]pyridin-2-amine]	2.15 nM	38.7 nM
N#CCS(=O)(=O)NCC1CCN(n2c(N)nc3cnc4[nH]ccc4c32)CC1 [Compound B2, N-((1-(2-aminoimidazo[4,5-d]pyrrolo[2,3-b]pyridin-1(6H)-yl)-piperidin-4-yl)methyl)-1-cyano methanesulfonamide]	0.045 nM	0.1 nM
N#CCC1CCN(n2c(N)nc3cnc4ccsc4c32)CC1 [Compound B4, 2-(1-(2-amino-1H-imidazo[4,5-d]thieno[3,2-b]pyridin-1-yl)piperidin-4-yl)acetonitrile]	0.47 nM	1.74 nM
N#CC[C@H]1CC[C@H](n2c(N)nc3cnc4ccoc4c32)CC1 [Compound B5, 2-((1R,4R)-4-(2-amino-1H-furo[3,2-b]imidazo[4,5-d]pyridin-1-yl)cyclohexyl)acetonitrile]	1.33 nM	7.15 nM
N#CCC1CCN(n2c(/N=N/c3ccc(O)c(C(=O)O)c3)nc3cnc4[nH]ccc4c32)CC1 [Compound B7, (E)-5-((1-(4-cyanomethylpiperidin-1-yl)-1,6-dihydroimidazo[4,5-d]pyrrolo[2,3-b]pyridin-2-yl)diazenyl)-2-hydroxybenzoic acid]	1 nM	0.27 nM
N#CC[C@H]1CC[C@H](n2c(/N=N/c3ccc(O)c(C(=O)N[C@H](CC(=O)O)C(=O)O)c3)nc3cnc4[nH]ccc4c32)CC1 [Compound B8, (5-((E)-(1-((1R,4R)-4-(cyanomethyl)cyclohexyl)-1,6-dihydroimidazo[4,5-d]pyrrolo[2,3-b]pyridin-2-yl)diazenyl)-2-hydroxybenzoyl)-D-aspartic acid]	1.75 nM	4.26 nM
N#CC[C@H]1CC[C@H](n2c(/N=N/c3ccc(O)c(C(=O)N[C@H](CCCCN)C(=O)O)c3)nc3cnc4[nH]ccc4c32)CC1 [Compound B9, (5-((E)-(1-((1R,4R)-4-(cyanomethyl)cyclohexyl)-1,6-dihydroimidazo[4,5-d]pyrrolo[2,3-b]pyridin-2-yl)diazenyl)-2-hydroxybenzoyl)-D-lysine]	2.52 nM	6.62 nM
N#CC[C@H]1CC[C@H](n2c(/N=N/c3ccc(O)c(C(=O)N[C@H](CCC(=O)O)C(=O)O)c3)nc3cnc4[nH]ccc4c32)CC1 [Compound B10, (5-((E)-(1-((1R,4R)-4-(cyanomethyl)cyclohexyl)-1,6-dihydroimidazo[4,5-d]pyrrolo[2,3-b]pyridin-2-yl)diazenyl)-2-hydroxybenzoyl)-D-glutamic acid]	1.34 nM	0.28 nM
N#CC[C@H]1CC[C@H](n2c(/N=N/c3ccc(O)c(C(=O)N[C@H](CCCN=C(N)N)C(=O)O)c3)nc3cnc4[nH]ccc4c32)CC1 [Compound B11, (R)-2-(5-((E)-(1-((1R,4R)-4-(cyanomethyl)cyclohexyl)-1,6-dihydroimidazo[4,5-d]pyrrolo[2,3-b]pyridin-2-yl)diazenyl)-2-hydroxybenzamido)-5-((diaminomethylene)amino)valeric acid]	1.6 nM	3.38 nM
N#CC[C@H]1CC[C@H](n2c(/N=N/c3ccc(O)c(C(=O)NCCS(=O)(=O)O)c3)nc3cnc4[nH]ccc4c32)CC1 [Compound B12, 2-(5-((E)-(1-((1R,4R)-4-(cyanomethyl)cyclohexyl)-1,6-dihydroimidazo[4,5-d]pyrrolo[2,3-b]pyridin-2-yl)diazenyl)-2-hydroxybenzamido) ethan-1-sulfonic acid]	1.02 nM	0.47 nM
